The values that follow come from patent EP0274444A2, “Solution inbuprofen complexes, compositions and processes for preparing the same” (priority 1987, dated 1988).

Molecules are shown by their SMILES.

A short description of the data set: pH of the resulting solutions (pH meter with combination electrode). In kind it is physicochemical. The settings on record: Mole Ratio Cyclodextrin:Ibuprofen 0:1 (ibuprofen alone, saturated solution). The protocol:
The pH of each solution was measured using an Orion Model 701 pH meter with a combination electrode.

Regarding `CC(C)Cc1ccc(C(C)C(=O)O)cc1` (stereo not shown) [Ibuprofen, ibuprofen], the pH came out at 4.56.
